Where two headings read alike, the source gives them in different places.
Experiments:
[1] = Pharmacokinetic and distribution experiment (radioactivity in blood and excised organs after tail vein injection); type: in vivo; settings: ddy mice; for Adrenal gland/Blood ratio / Adrenal gland/Kidney ratio / Adrenal gland/Liver ratio / Radioactivity Distribution, Adrenal gland / Radioactivity Distribution, Blood / Radioactivity Distribution, Heart / Radioactivity Distribution, Kidney / Radioactivity Distribution, Large intestine / Radioactivity Distribution, Liver / Radioactivity Distribution, Lung / Radioactivity Distribution, Pancreas / Radioactivity Distribution, Small intestine / Radioactivity Distribution, Spleen / Radioactivity Distribution, Stomach / Radioactivity Distribution, Thyroid: tail vein injection, 18.5 kBq (0.5 μCi)
Experimental: (§1) The HPLC fraction of [^125I]PAY15 obtained in Example 3 was concentrated and then diluted with saline. The resulting solution was used in administration. 100 μL of the solution (18.5 kBq (0.5 μCi)) was injected to the tail vein of each of five ddy mice (6 weeks old). Five minutes later, each mouse was decapitated, and blood was collected. Then, organs (adrenal gland, pancreas, heart, lung, stomach, small intestine, large intestine, liver, spleen, kidney, and thyroid gland) were excised. After measurement of their weights, the radioactivities of blood and each excised organ were measured. Also, the point in time when each mouse was decapitated was changed to 5, 15, 30, 60, and 120 minutes later to perform similar operation.
The HPLC fraction of [^125I]PAY21 obtained in Example 6 was concentrated and then diluted with saline. The resulting solution was used in administration to perform the same operation as in Evaluation 1.
as §1, with “[^18F]PAY27 obtained” for “The HPLC fraction of [^125I]PAY15 obtained”, “Example 10” for “Example 3”, “was” for “was concentrated and then”, “solution (14.8” for “solution (18.5”, “kBq (4” for “kBq (0.5”, “and thigh bone)” for “and thyroid gland)”
as §1, with “[^18F]PAY54 obtained” for “The HPLC fraction of [^125I]PAY15 obtained”, “Example 13” for “Example 3”, “was” for “was concentrated and then”, “solution (14.8” for “solution (18.5”, “kBq (4” for “kBq (0.5”, “and thigh bone)” for “and thyroid gland)”

[2] = Stability evaluation in plasma (HPLC, RI detector); type: in vitro ADME; settings: CD-1 mouse plasma, 37° C., incubation for 120 minutes
Experimental: The stability of [^125I]PAY21 in plasma was evaluated by the following procedures: Blood was collected from the heart of each CD-1 mouse. Plasma was separated by centrifugation and passed through Cosmonice filter (diameter: 4 mm, pore size: 0.45 μm, Nacalai Tesque, Inc.). 350 μL of the plasma thus filtered was incubated at 37° C. for 15 minutes. Then, 30 μL of a saline solution of [^125I]PAY21 (18.5 kBq (0.5 μCi)) was added thereto. After incubation for 120 minutes, a 100 μL aliquot of the mixture was separated and added to methanol (500 μL) under ice cooling. The mixture was further centrifuged, and the supernatant (400 μL) was analyzed by HPLC. The HPLC conditions were the same as those shown in Example 6.

[3] = Pharmacokinetic and distribution experiment using CD-1 (ICR) mice instead of ddy mice; type: in vivo; settings: similar operation using CD-1 (ICR) mice instead of ddy mice
[4] = biological target: T1, CYP11B2 (Homo sapiens, UniProt P19099); settings: reported by Stefanie Hahner et al., J Clin Endocrinol Metab 2008; cited from earlier work
T1 sequence (P19099 25-503): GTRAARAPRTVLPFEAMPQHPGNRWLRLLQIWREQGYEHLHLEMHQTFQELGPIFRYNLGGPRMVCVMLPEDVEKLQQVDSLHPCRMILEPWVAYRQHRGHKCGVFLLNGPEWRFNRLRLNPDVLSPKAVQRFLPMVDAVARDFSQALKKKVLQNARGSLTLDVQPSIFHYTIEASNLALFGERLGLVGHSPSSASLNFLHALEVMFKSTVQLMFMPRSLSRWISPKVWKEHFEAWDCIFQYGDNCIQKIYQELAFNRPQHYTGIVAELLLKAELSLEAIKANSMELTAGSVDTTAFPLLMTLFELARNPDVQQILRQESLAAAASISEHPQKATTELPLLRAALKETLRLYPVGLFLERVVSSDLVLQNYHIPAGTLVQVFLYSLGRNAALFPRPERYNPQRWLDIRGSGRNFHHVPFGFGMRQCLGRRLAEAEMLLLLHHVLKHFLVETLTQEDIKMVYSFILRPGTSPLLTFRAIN

[5] = biological target: T2, human CYP11B1 (Homo sapiens, UniProt P15538); test: Inhibition of cortisol production in V79-B1 cells expressing human CYP11B1 (ELISA); type: cell-based; settings: 11-deoxycortisol 100 nmol/L, 1 hour, unlabeled form, read-out: IC50 against cortisol production
T2 construct: expressed in transfected cells; host or cells: Chinese hamster lung-derived fibroblast V79 cells (V79-B1)
T2 sequence (P15538 25-503): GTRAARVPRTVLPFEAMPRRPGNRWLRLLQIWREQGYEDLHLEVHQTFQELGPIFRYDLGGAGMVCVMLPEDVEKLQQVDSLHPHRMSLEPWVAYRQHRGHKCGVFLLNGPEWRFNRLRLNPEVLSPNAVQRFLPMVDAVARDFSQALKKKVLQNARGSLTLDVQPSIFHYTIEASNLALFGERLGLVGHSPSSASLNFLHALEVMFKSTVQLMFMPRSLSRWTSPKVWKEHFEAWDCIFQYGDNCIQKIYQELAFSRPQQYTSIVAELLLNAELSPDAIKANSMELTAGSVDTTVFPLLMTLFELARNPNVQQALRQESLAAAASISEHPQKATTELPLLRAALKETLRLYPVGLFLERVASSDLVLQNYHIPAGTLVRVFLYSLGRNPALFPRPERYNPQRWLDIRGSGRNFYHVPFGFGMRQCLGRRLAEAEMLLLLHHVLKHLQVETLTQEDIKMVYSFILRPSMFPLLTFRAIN
Experimental: (§2) Chinese hamster lung-derived fibroblast V79 cells (obtained from European Collection of Cell Cultures (ECACC) via DS Pharma Biomedical Co., Ltd.) were allowed to express human CYP11B2 and human CYP11B1 to prepare V79-B2 and V79-B1, respectively. V79-B2 or V79-B1 was inoculated to a microplate and cultured overnight. Then, corticosterone and 11-deoxycortisol were added at final concentrations of 100 nmol/L into the culture supernatants of V79-B2 and V79-B1, respectively. At the same time, iodometomidate (IMTO) or the unlabeled form of PAY15, PAY21, PAY27, or PAY54 synthesized in Example 2, 5, 8, or 12 was added at a final concentration of 10^−4 to 10^3 nmol/L into the culture supernatants. One hour later, the culture supernatant of V79-B1 was recovered, and the concentration of cortisol, which is a metabolite of CYP11B1, was measured by enzyme-linked immunosorbent assay (ELISA). Four hours later, the culture supernatant of V79-B2 was recovered, and the concentration of aldosterone, which is a metabolite of CYP11B2, was measured by ELISA. […] IC50 against cortisol production/IC50 against aldosterone production was calculated and used as a selectivity factor for CYP11B2.

[6] = biological target: T1, CYP11B2; test: Inhibition of aldosterone production in V79-B2 cells expressing human CYP11B2 (ELISA); type: cell-based; parameters: expressed in transfected cells; host or cells: Chinese hamster lung-derived fibroblast V79 cells (V79-B2)
Experimental: as §2

O=C1CCc2cc(-c3cncc([125I])c3)cc3c2N1CC3 [[^125I]PAY21, 8-(5-[^125I]iodopyridin-3-yl)-1,2,5,6-tetrahydro-4H-pyrrolo[3,2,1-ij]quinolin-4-one]
radioactivity accumulation in the adrenal gland compared with blood and periadrenal tissues ([1]; at an early stage after administration): high radioactivity accumulation
Adrenal gland/Blood ratio ([1]; 5 min): 1.71 ± 0.08
Adrenal gland/Kidney ratio ([1]; 5 min): 1.52 ± 0.19
Adrenal gland/Liver ratio ([1]; 5 min): 1.13 ± 0.14
Radioactivity Distribution, Adrenal gland ([1]; 5 min): 9.7 ± 1.4 % dose/g
Radioactivity Distribution, Blood ([1]; 5 min): 5.7 ± 0.8 % dose/g
Radioactivity Distribution, Heart ([1]; 5 min): 3.6 ± 0.4 % dose/g
Radioactivity Distribution, Kidney ([1]; 5 min): 6.4 ± 0.4 % dose/g
Radioactivity Distribution, Large intestine ([1]; 5 min): 2.3 ± 0.4 % dose/g
Radioactivity Distribution, Liver ([1]; 5 min): 8.6 ± 1.1 % dose/g
Radioactivity Distribution, Lung ([1]; 5 min): 5.6 ± 0.7 % dose/g
Radioactivity Distribution, Pancreas ([1]; 5 min): 4.0 ± 0.5 % dose/g
Radioactivity Distribution, Small intestine ([1]; 5 min): 6.0 ± 1.0 % dose/g
Radioactivity Distribution, Spleen ([1]; 5 min): 3.9 ± 0.4 % dose/g
Radioactivity Distribution, Stomach ([1]; 5 min): 10.1 ± 1.6 % dose/g
Radioactivity Distribution, Thyroid ([1]; 5 min): 114.1 ± 22.4 % dose/g
Adrenal gland/Blood ratio ([1]; 15 min): 0.75 ± 0.17
Adrenal gland/Kidney ratio ([1]; 15 min): 0.90 ± 0.24
Adrenal gland/Liver ratio ([1]; 15 min): 1.12 ± 0.36
Radioactivity Distribution, Adrenal gland ([1]; 15 min): 3.6 ± 1.0 % dose/g
Radioactivity Distribution, Blood ([1]; 15 min): 4.7 ± 0.4 % dose/g
Radioactivity Distribution, Heart ([1]; 15 min): 2.1 ± 0.3 % dose/g
Radioactivity Distribution, Kidney ([1]; 15 min): 4.0 ± 0.6 % dose/g
Radioactivity Distribution, Large intestine ([1]; 15 min): 2.2 ± 0.1 % dose/g
Radioactivity Distribution, Liver ([1]; 15 min): 3.2 ± 0.4 % dose/g
Radioactivity Distribution, Lung ([1]; 15 min): 4.1 ± 0.3 % dose/g
Radioactivity Distribution, Pancreas ([1]; 15 min): 2.6 ± 0.3 % dose/g
Radioactivity Distribution, Small intestine ([1]; 15 min): 8.1 ± 2.2 % dose/g
Radioactivity Distribution, Spleen ([1]; 15 min): 3.0 ± 0.4 % dose/g
Radioactivity Distribution, Stomach ([1]; 15 min): 28.4 ± 3.3 % dose/g
Radioactivity Distribution, Thyroid ([1]; 15 min): 332.2 ± 43.1 % dose/g
Adrenal gland/Blood ratio ([1]; 30 min): 0.76 ± 0.14
Adrenal gland/Kidney ratio ([1]; 30 min): 0.82 ± 0.10
Adrenal gland/Liver ratio ([1]; 30 min): 1.26 ± 0.20
Radioactivity Distribution, Adrenal gland ([1]; 30 min): 2.8 ± 0.3 % dose/g
Radioactivity Distribution, Blood ([1]; 30 min): 3.7 ± 0.4 % dose/g
Radioactivity Distribution, Heart ([1]; 30 min): 1.5 ± 0.1 % dose/g
Radioactivity Distribution, Kidney ([1]; 30 min): 3.4 ± 0.4 % dose/g
Radioactivity Distribution, Large intestine ([1]; 30 min): 2.1 ± 0.2 % dose/g
Radioactivity Distribution, Liver ([1]; 30 min): 2.2 ± 0.2 % dose/g
Radioactivity Distribution, Lung ([1]; 30 min): 3.4 ± 0.3 % dose/g
Radioactivity Distribution, Pancreas ([1]; 30 min): 2.4 ± 0.5 % dose/g
Radioactivity Distribution, Small intestine ([1]; 30 min): 10.3 ± 2.8 % dose/g
Radioactivity Distribution, Spleen ([1]; 30 min): 2.5 ± 0.6 % dose/g
Radioactivity Distribution, Stomach ([1]; 30 min): 40.7 ± 3.5 % dose/g
Radioactivity Distribution, Thyroid ([1]; 30 min): 1570.0 ± 165.0 % dose/g
Adrenal gland/Blood ratio ([1]; 60 min): 0.54 ± 0.17
Adrenal gland/Kidney ratio ([1]; 60 min): 0.65 ± 0.21
Adrenal gland/Liver ratio ([1]; 60 min): 1.15 ± 0.38
Radioactivity Distribution, Adrenal gland ([1]; 60 min): 1.9 ± 0.8 % dose/g
Radioactivity Distribution, Blood ([1]; 60 min): 3.4 ± 0.6 % dose/g
Radioactivity Distribution, Heart ([1]; 60 min): 1.3 ± 0.2 % dose/g
Radioactivity Distribution, Kidney ([1]; 60 min): 2.9 ± 0.6 % dose/g
Radioactivity Distribution, Large intestine ([1]; 60 min): 2.0 ± 0.4 % dose/g
Radioactivity Distribution, Liver ([1]; 60 min): 1.6 ± 0.3 % dose/g
Radioactivity Distribution, Lung ([1]; 60 min): 3.1 ± 0.6 % dose/g
Radioactivity Distribution, Pancreas ([1]; 60 min): 1.7 ± 0.3 % dose/g
Radioactivity Distribution, Small intestine ([1]; 60 min): 10.9 ± 2.9 % dose/g
Radioactivity Distribution, Spleen ([1]; 60 min): 1.9 ± 0.4 % dose/g
Radioactivity Distribution, Stomach ([1]; 60 min): 39.4 ± 9.1 % dose/g
Radioactivity Distribution, Thyroid ([1]; 60 min): 1318.7 ± 800.8 % dose/g
Adrenal gland/Blood ratio ([1]; 120 min): 0.71 ± 0.32
Adrenal gland/Kidney ratio ([1]; 120 min): 0.81 ± 0.44
Adrenal gland/Liver ratio ([1]; 120 min): 1.33 ± 0.64
Radioactivity Distribution, Adrenal gland ([1]; 120 min): 1.8 ± 0.7 % dose/g
Radioactivity Distribution, Blood ([1]; 120 min): 2.6 ± 0.3 % dose/g
Radioactivity Distribution, Heart ([1]; 120 min): 1.0 ± 0.2 % dose/g
Radioactivity Distribution, Kidney ([1]; 120 min): 2.4 ± 0.6 % dose/g
Radioactivity Distribution, Large intestine ([1]; 120 min): 10.0 ± 4.8 % dose/g
Radioactivity Distribution, Liver ([1]; 120 min): 1.4 ± 0.2 % dose/g
Radioactivity Distribution, Lung ([1]; 120 min): 2.6 ± 0.7 % dose/g
Radioactivity Distribution, Pancreas ([1]; 120 min): 1.6 ± 0.1 % dose/g
Radioactivity Distribution, Small intestine ([1]; 120 min): 4.8 ± 1.3 % dose/g
Radioactivity Distribution, Spleen ([1]; 120 min): 1.7 ± 0.1 % dose/g
Radioactivity Distribution, Stomach ([1]; 120 min): 38.6 ± 6.5 % dose/g
Radioactivity Distribution, Thyroid ([1]; 120 min): 4664.0 ± 1419.1 % dose/g
peak area of intact compound after incubation in plasma [2]: approximately 60%
radioactivity distribution in CD-1 (ICR) mice compared with ddy mice [3]: no difference between the species

COC(=O)c1cncn1C(C)c1ccccc1 (stereo not shown) [MTO, metomidate]
Selectivity factor [4]: 0.275
selectivity for CYP11B1 versus CYP11B2 [4]: higher selectivity for steroid 11β-hydroxylase (CYP11B1) than that for aldosterone synthase (CYP11B2)

COC(=O)c1cncn1[C@H](C)c1ccc(I)cc1 [IMTO, iodometomidate, reference compound]
IC50 [5]: 0.13 nM
Selectivity factor [4]: 0.261
Selectivity factor ([6]; IC50 against cortisol production/IC50 against aldosterone production, selectivity factor for CYP11B2): 0.93
IC50 ([6]; V79-B2 cells, corticosterone 100 nmol/L, 4 hours, unlabeled form, read-out: IC50 against aldosterone production): 0.14 nM

C[C@H](c1ccccc1)n1cncc1C(=O)OCCF [FETO, fluoroetomidate]
Selectivity factor [4]: 0.145

From patent US20140187784A1, “RADIOACTIVE QUINOLINONE DERIVATIVE AND PHARMACEUTICAL DRUG COMPRISING THE SAME” (Nihon Medi-Physics Co., Ltd., priority 2012, published 2014)
